Measurements: patent US8334235B2, “Thiadiazolyloxyphenylamidines and use thereof as fungicides” (Bayer Cropscience AG, priority 2008, dated 2012)

Key:
[1] = log P (pH 2.3); type: physicochemical
[2] = test system: Sphaerotheca fuliginea; assay: Sphaerotheca test (cucumber)/protective; type: in vivo; conditions: Podosphaera fuliginea, 168 h, 500 ppm active substance, protective, evaluation 7 days after inoculation, read-out: degree of effectiveness
Experimental: • Solvent: 49 parts by weight of N,N-dimethylformamide • Emulsifier: 1 part by weight of alkylaryl polyglycol ether (polyoxyethylene (16) tristearylphenyl ether) To prepare a suitable active substance composition, 1 part by weight of active substance is mixed with the given amounts of solvents and emulsifier and the concentrate is diluted to the desired concentration using water. For the testing of protective effectiveness, young cucumber plants are sprayed with the active substance composition in the application rate given. One day after treatment, the plants are inoculated with a suspension of spores of Sphaerotheca fuliginea. The plants are then placed in a greenhouse at 70% relative humidity and a temperature of 23° C. Evaluation is carried out 7 days after the inoculation. In this connection, 0% means a degree of effectiveness corresponding to that of the control, while a degree of effectiveness of 100% means that no infestation is observed.

[3] = test system: Puccinia triticina; assay: Puccinia triticina test (wheat)/protective; type: in vivo; conditions: 192 h, 500 ppm active substance, protective, evaluation 8 days after inoculation, read-out: degree of effectiveness
Experimental: (§1) • Solvent: 50 parts by weight of N,N-dimethylacetamide • Emulsifier: 1 part by weight of alkylaryl polyglycol ether (polyoxyethylene (16) tristearylphenyl ether)
(§2) To prepare a suitable active substance composition, 1 part by weight of active substance is mixed with the given amounts of solvent and emulsifier and the concentrate is diluted to the desired concentration using water.
For the testing of protective effectiveness, young plants are sprayed with the active substance composition in the application rate given. After the spray coating has been dried on, the plants are sprayed with a suspension of spores of Puccinia triticina. The plants remain in an incubation chamber at 20° C. and 100% relative humidity for 48 hours. The plants are placed in a greenhouse at a temperature of approximately 20° C. and a relative humidity of approximately 80%.
(§3) Evaluation is carried out 8 days after the inoculation. In this connection, 0% means a degree of effectiveness corresponding to that of the control, while a degree of effectiveness of 100% means that no infestation is observed.

[4] = test system: Puccinia triticina; assay: Puccinia triticina test (wheat)/curative; type: in vivo; conditions: 192 h, 500 ppm active substance, curative, evaluation 8 days after inoculation, read-out: degree of effectiveness
Experimental: as §1, §2
For the testing of curative effectiveness, young plants are sprayed with a suspension of spores of Puccinia triticina. The plants remain in an incubation chamber at 20° C. and 100% relative humidity for 48 hours and are then sprayed with the active substance composition in the application rate given. The plants are placed in a greenhouse at a temperature of approximately 20° C. and a relative humidity of approximately 80%.
as §3

[5] = test system: bean rust pathogen Uromyces appendiculatus; assay: Uromyces test (beans)/protective; type: in vivo; conditions: 240 h, 100 ppm active substance, protective, evaluation 10 days after inoculation, read-out: degree of effectiveness
Experimental: (§4) • Solvents: 24.5 parts by weight of acetone • 24.5 parts by weight of dimethylacetamide • Emulsifier: 1 part by weight of alkylaryl polyglycol ether (polyoxyethylene (16) tristearylphenyl ether)
To prepare a suitable active substance composition, 1 part by weight of active substance is mixed with the given amounts of solvents and emulsifier and the concentrate is diluted to the desired concentration using water.
For the testing of protective effectiveness, young plants are sprayed with the active substance composition in the application rate given. After the spray coating has been dried on, the plants are inoculated with an aqueous suspension of the spores of the bean rust pathogen Uromyces appendiculatus and then remain in an incubation chamber at approximately 20° C. and 100% relative humidity for 1 day.
The plants are then placed in a greenhouse at approximately 21° C. and a relative humidity of approximately 90%.
Evaluation is carried out 10 days after the inoculation. In this connection, 0% means a degree of effectiveness corresponding to that of the control, while a degree of effectiveness of 100% means that no infestation is observed.

[6] = test system: Alternaria solani; assay: Alternaria test (tomato)/protective; type: in vivo; conditions: 72 h, 100 ppm active substance, protective, evaluation 3 days after inoculation, read-out: degree of effectiveness
Experimental: as §4
To prepare a suitable active substance composition, 1 part by weight of substance is mixed with the given amounts of solvents and emulsifier and the concentrate is diluted to the desired concentration using water.
For the testing of protective effectiveness, young plants are sprayed with the active substance composition in the application rate given. After the spray coating has been dried on, the plants are inoculated with an aqueous suspension of spores of Alternaria solani. The plants are then placed in an incubation chamber at approximately 20° C. and 100% relative humidity.
Evaluation is carried out 3 days after the inoculation. In this connection, 0% means a degree of effectiveness corresponding to that of the control, while a degree of effectiveness of 100% means that no infestation is observed.

logP [1] | SMILES | pest or weed control at 500 ppm [2] [%] | pest or weed control at 500 ppm [3] [%] | pest or weed control at 500 ppm [4] [%] | pest or weed control at 100 ppm [5] [%] | pest or weed control at 100 ppm [6] [%]
4.62 | Cc1ccc(S(=O)(=O)c2nc(CCc3ccc(Cl)cc3)ns2)cc1 [3-[2-(4-Chlorophenyl)ethyl]-5-[(4-methylphenyl)sulphonyl]-1,2,4-thiadiazole] |  |  |  |  | 
 | CCN(C)/C=N/c1cc(C)c(Oc2nc(Cc3ccc(Cl)cc3Cl)ns2)cc1Cl [Compound 38, N′-(2-chloro-4-{[3-(2,4-dichlorobenzyl)-1,2,4-thiadiazol-5-yl]oxy}-5-methylphenyl)-N-ethyl-N-methylimidoformamide] | ≥ 70 | ≥ 70 | ≥ 70 | ≥ 70 | 
 | CCN(C)/C=N/c1cc(C)c(Oc2nc(C(C)(C)C)ns2)cc1Cl [Compound 1, N′-{4-[(3-(tert-butyl)-1,2,4-thiadiazol-5-yl)oxy]-2-chloro-5-methylphenyl}-N-ethyl-N-methylimidoformamide] | ≥ 70 | ≥ 70 | ≥ 70 | ≥ 70 | ≥ 70
 | CCN(C)/C=N/c1cc(C)c(Oc2nc(Cc3ccccc3)ns2)cc1Cl [Compound 14, N′-{4-[(3-benzyl-1,2,4-thiadiazol-5-yl)oxy]-2-chloro-5-methylphenyl}-N-ethyl-N-methylimidoformamide] | ≥ 70 | ≥ 70 | ≥ 70 | ≥ 70 | ≥ 70
 | CCN(C)C=Nc1cc(C)c(Oc2nc(/C=C/c3ccc(F)cc3)ns2)cc1Cl [Compound 15, N′-[2-chloro-4-({3-[(E)-2-(4-fluorophenyl)ethenyl]-1,2,4-thiadiazol-5-yl}oxy)-5-methylphenyl]-N-ethyl-N-methylimidoformamide] | ≥ 70 | ≥ 70 | ≥ 70 | ≥ 70 | ≥ 70
 | CCN(C)/C=N/c1cc(C)c(Oc2nc(C(C)(C)CCl)ns2)cc1Cl [Compound 39, N′-(2-chloro-4-{[3-(1-chloro-2-methylpropan-2-yl)-1,2,4-thiadiazol-5-yl]oxy}-5-methylphenyl)-N-ethyl-N-methylimidoformamide] | ≥ 70 | ≥ 70 | ≥ 70 | ≥ 70 | ≥ 70
3.36 | O=c1oc(CCc2ccc(Cl)cc2)ns1 [5-[2-(4-Chlorophenyl)ethyl]-1,3,4-oxathiazol-2-one] |  |  |  |  | 
 | CCN(C)/C=N/c1cc(C)c(Oc2nc(C(C)c3ccc(Cl)cc3)ns2)cc1Cl (stereo not shown) [Compound 6] | ≥ 70 | ≥ 70 | ≥ 70 | ≥ 70 | 
 | CCN(C)C=Nc1cc(C)c(Oc2nc(C3(C)CC3(Cl)Cl)ns2)cc1Cl (stereo not shown) [Compound 32, N′-(2-chloro-4-{[3-(2,2-dichloro-1-methylcyclopropyl)-1,2,4-thiadiazol-5-yl]oxy}-5-methylphenyl)-N-ethyl-N-methylimidoformamide] | ≥ 70 | ≥ 70 | ≥ 70 | ≥ 70 | ≥ 70
 | CCCN(C)/C=N/c1cc(C)c(Oc2nc(C(C)(C)C)ns2)cc1Cl [Compound 24, N′-{4-[(3-(tert-butyl)-1,2,4-thiadiazol-5-yl)oxy]-2-chloro-5-methylphenyl}-N-methyl-N-propylimidoformamide] | ≥ 70 | ≥ 70 | ≥ 70 |  | ≥ 70
4.5 | Cc1cc(N)c(Cl)cc1Oc1nc(CCc2ccc(Cl)cc2)ns1 [2-Chloro-4-({3-[2-(4-chlorophenyl)ethyl]-1,2,4-thiadiazol-5-yl}oxy)-5-methylaniline] |  |  |  |  | 
 | Cc1cc(N=CN(C)C(C)C)c(Cl)cc1Oc1nc(C(C)(C)c2ccc(Cl)cc2)ns1 [Compound 13, N′-[2-chloro-4-({3-[2-(4-chlorophenyl)propan-2-yl]-1,2,4-thiadiazol-5-yl}oxy)-5-methylphenyl]-N-methyl-N-(propan-2-yl)imidoformamide] | ≥ 70 | ≥ 70 | ≥ 70 |  | ≥ 70
3.67 | Cc1ccc(S(=O)(=O)c2nc(C3(Cl)CC3)ns2)cc1 [3-(1-Chlorocyclopropyl)-5-{(4-methylphenyl)sulphonyl}-1,2,4-thiadiazole] |  |  |  |  | 
3.5 | Cc1cc(N)c(Cl)cc1Oc1nc(C2(Cl)CC2)ns1 [2-Chloro-4-{[3-(1-chlorocyclopropyl)-1,2,4-thiadiazol-5-yl]oxy}-5-methylaniline] |  |  |  |  | 
 | CCN(C)/C=N/c1cc(C)c(Oc2nc(Cc3ccc(Br)cc3)ns2)cc1Cl [Compound 33, N′-(4-{[3-(4-bromobenzyl)-1,2,4-thiadiazol-5-yl]oxy}-2-chloro-5-methylphenyl)-N-ethyl-N-methylimidoformamide] | ≥ 70 | ≥ 70 | ≥ 70 |  | ≥ 70
2.64 | Cc1cc(/N=C\N2CCCCC2)c(Cl)cc1Oc1nc(CCc2ccc(Cl)cc2)ns1 [Compound 10, 2-chloro-4-({3-[2-(4-chlorophenyl)ethyl]-1,2,4-thiadiazol-5-yl}oxy)-5-methyl-N-[(Z)-piperidin-1-ylmethylidene]aniline] |  |  |  |  | 
 | CCN(C)/C=N/c1cc(C)c(Oc2nc(Cc3ccc(Cl)cc3)ns2)cc1Cl [Compound 18, N′-(2-chloro-4-{[3-(4-chlorobenzyl)-1,2,4-thiadiazol-5-yl]oxy}-5-methylphenyl)-N-ethyl-N-methylimidoformamide] | ≥ 70 | ≥ 70 | ≥ 70 | ≥ 70 | 
 | CCN(C)/C=N/c1cc(C)c(Oc2nc(C(C)(C)C)ns2)cc1Br [Compound 2, N′-{2-bromo-4-[(3-(tert-butyl)-1,2,4-thiadiazol-5-yl)oxy]-5-methylphenyl}-N-ethyl-N-methylimidoformamide] | ≥ 70 | ≥ 70 | ≥ 70 | ≥ 70 | ≥ 70
 | Cc1cc(N=CN(C)C(C)C)c(Cl)cc1Oc1nc(C(C)c2ccc(Cl)cc2)ns1 (stereo not shown) [Compound 8, N′-[2-chloro-4-({3-[1-(4-chlorophenyl)ethyl]-1,2,4-thiadiazol-5-yl}oxy)-5-methylphenyl]-N-methyl-N-(propan-2-yl)imidoformamide] | ≥ 70 |  |  | ≥ 70 | 
 | CCN(C)C=Nc1cc(C)c(Oc2nc(C3(c4ccc(Cl)cc4)CC3)ns2)cc1Cl [Compound 17, N′-[2-chloro-4-({3-[1-(4-chlorophenyl)cyclopropyl]-1,2,4-thiadiazol-5-yl}oxy)-5-methylphenyl]-N-ethyl-N-methylimidoformamide] | ≥ 70 | ≥ 70 | ≥ 70 | ≥ 70 | ≥ 70
